From US6423855B1, “Cytoprotective compounds” (Virginia Commonwealth University, priority 1996, dated 2002)
In brackets after ≈: the same amount, converted by molar mass. Where two headings read alike, the source gives them in different places.

Columns and labels:
clone W2 (P.falciparum) = assay: 3H-hypoxanthine incorporation, P.falciparum clone W2; type: cell-based; settings: Plasmodium falciparum
clone D6 (P. falciparum) = assay: 3H-hypoxanthine incorporation, P.falciparum clone D6; type: cell-based; settings: Plasmodium falciparum
[1] = tested on: ultraviolet-induced erythema; assay: protection against ultraviolet-induced erythema; type: in vivo, hairless albino mice
Protocol: The human skin tests were conducted on three volunteer female subjects, ages 29-32; a cream base with no added active was included as a control, while the untreated skin served as an additional basis for evaluation. Sunburn tests were performed on a total of 30 hairless albino mice.
5.Protection against ultraviolet-induced ervthema. The protection against ultraviolet-induced erythema (i.e., the burn and irritation produced after exposure to ultraviolet radiation), was measured by first irradiating 12 mice with destructive 3130 angstrom (Å) rays, applying the creams, and then evaluating the skin cells for erythema.

epidermal layer = assay: transepidermal water loss; type: in vivo, human
Protocol: (§1) Two PX compounds PX-11 and PX-13 were evaluated in a cream formulation prepared under GMP. The chemicals were formulated into a bland cream and evaluated in the following human or mouse skin tests: (1) occluded patch test for irritation; (2) cell turnover rate; (3) transepidermal water loss; (4) skin moisturization; and (5) reduction in erythema after induced sunburn. The human skin tests were conducted on three volunteer female subjects, ages 29-32; a cream base with no added active was included as a control, while the untreated skin served as an additional basis for evaluation. Sunburn tests were performed on a total of 30 hairless albino mice. 3. Transepidermal water loss. This parameter was measured by affixing a flow cell on the forearm site, applying the cream, waiting 20 minutes, then flushing the volume with nitrogen and noting the moisture content of the effluent gases.

epidermis cell turnover = assay: cell turnover rate (dansyl chloride); type: in vivo, human
Protocol: as §1, with “2. Cell turnover rate:” for “3. Transepidermal water loss.”, “adsorption of dansyl chloride, in which 3% dansyl chloride was incorporated into petrolatum. This salve was applied over” for “affixing”, “2.5 cm diameter circular area in” for “flow cell on”, “upper arm and a patch applied. 24 hours later” for “forearm site, applying”, “patch was removed. The intensity of dansyl chloride fluorescence was indicative” for “cream, waiting 20 minutes, then flushing the volume with nitrogen and noting the moisture content”, “cell turnover rate in the epidermis.” for “effluent gases.”

outer skin layers = assay: skin moisturization (20 megahertz ultrasound); type: in vivo, human; settings: for Ultrasound Density Score: 30 minutes after application
Protocol: as §1, with “4. Skin moisturization. Skin moisturization” for “3. Transepidermal water loss. This parameter”, “using 20 megahertz ultrasound (the presence of moisture produces” for “by affixing”, “density decrease in” for “flow cell on”, “outer skin layers), before and 30 minutes after product application to” for “forearm site, applying”, “forearm.” for “cream, waiting 20 minutes, then flushing the volume with nitrogen and noting the moisture content of the effluent gases.”

[2] = tested on: PLA2 activities derived from human platelets and human polymorphonuclear leukocytes (PMNs); assay: in vitro PLA2 activities from human platelets and PMNs; type: biochemical; settings: unesterified cis-unsaturated fatty acids
Source text: Oxidation of the sarcoplasmic reticulum of muscle and of phospholipid membranes predisposes them to phospholipase degradation. Phospholipid membranes that have been oxidized at particular sites may appear intact and maintain functional activity, but their oxidation makes them vulnerable to degradation and destruction by PLA2 or other phospholipases from endogenous or exogenous sources.

solubility in water = type: physicochemical
Protocol: To 6.22 g (20.8 mmol) of ricinoleic acid and 4.00 g of triethylamine in 150 mL THF was added 2.31 g (9.0 mmol) of ethylenediamine tetraacetic acid dianhydride. After stirring 15 min at 40° C., 20 mL of acetonitrile was added, since ethylenediamine tetraacetic acid dianhydride was not dissolved completely. The solution was stirred for 72 h under reflux and gradually turned yellow during this time. The solvent was removed under reduced pressure. The mixture was suspended in 100 mL of ether and extracted twice with 50 mL of saturated aqueous sodium chloride. After drying the ether solution, the solvent was removed under reduced pressure. The residue was suspended in methanol and filtered. The solvent was removed under reduced pressure. The residual oil was purified by chromatography on silica gel, eluted with a gradient of acetone/methanol (70:30 v/v to 0:100 v/v). N,N-bis(oleic acid-12-oxycarbonylmethyl)-N-N′-bis(carboxylmethyl) ethylenediamine was isolated as a yellow solid with a yield of 1.23 g (14%).

CCN(CC)CCCC(C)Nc1ccnc2cc(Cl)ccc12 (centres unmarked) [chloroquine]
IC50 (clone W2 (P.falciparum); W2, read-out: IC50 growth): 30 ng/mL (≈ 93.8 nM)
IC50 (clone D6 (P. falciparum); D6, read-out: IC50 growth): 1.6 ng/mL (≈ 5 nM)

tricinyl trioleate [PX-11]
Post-Radiation Erythema Ranking Mean ([1]; Mean, 1 = Best, 4 = Worst): 2
Post-Radiation Erythema Ranking ([1]; Subject 1, 1 = Best, 4 = Worst): 2
Post-Radiation Erythema Ranking ([1]; Subject 2, 1 = Best, 4 = Worst): 2
Post-Radiation Erythema Ranking ([1]; Subject 3, 1 = Best, 4 = Worst): 2
erythema reduction vs base cream ([1]; mouse, in vivo): significantly better than the base cream
% Change in Transepidermal Water Loss (epidermal layer; forearm, 20 minutes after applying cream): +649.0%
effect on water loss from the epidermal layer (epidermal layer; in vivo): opened the pores and permitted water to escape
effectiveness at promoting water loss vs control (epidermal layer; relative to control cream): 10 times
Days to Cell Renewal Treated (epidermis cell turnover; cream-treated skin, upper arm): 28.8 days
% Change in Cell Turnover Time (epidermis cell turnover; treated vs untreated skin): +34%
Ultrasound Density Score (outer skin layers; Subject 1, 7 = Best, 1 = Baseline): 3
Ultrasound Density Score (outer skin layers; Subject 2): 3
Ultrasound Density Score (outer skin layers; Subject 3): 1
Ultrasound Density Score Total (outer skin layers; Total of 3 subjects, 7 = Best, 1 = Baseline): 7
moisturization properties (outer skin layers; in vivo): good moisturization properties

OC(c1cc(C(F)(F)F)nc2c(C(F)(F)F)cccc12)C1CCCCN1 (centres unmarked) [mefloquine]
IC50 (clone W2 (P.falciparum); printed as control cultures sensitive to both drugs, compared with clone W2, read-out: IC50 growth): 1.3 ng/mL (≈ 3.44 nM)
IC50 (clone D6 (P. falciparum); printed as control cultures sensitive to both drugs, compared with clone D6, read-out: IC50 growth): 4.3 ng/mL (≈ 11.4 nM)

CCCCCCCC/C=C\CCCCCCCC(=O)O [oleic acid]
inhibition of in vitro PLA2 activity [2]: inhibited

CCCCC/C=C\C/C=C\CCCCCCCC(=O)O [linoleic acid]
inhibition of in vitro PLA2 activity [2]: inhibited

CCCCC/C=C\C/C=C\C/C=C\C/C=C\CCCC(=O)O [arachidonic acid]
inhibition of in vitro PLA2 activity [2]: inhibited

CCCCCCC(CC=CCCCCCCCC(=O)O)OC(=O)CN(CCN(CC(=O)O)CC(=O)OC(CC=CCCCCCCCC(=O)O)CCCCCC)CC(=O)O (centres unmarked) [N,N-Bis(oleic acid-12-oxycarbonylmethyl)-N-N′bis(carboxylmethyl) ethylenediamine]
solubility in water (solubility in water): readily soluble in water
